This is an account of results in patent publication US8946234B2, “Halogen-substituted compounds” (Bayer CropScience AG, priority 2008, dated 2015).

A short description of one series: physchem. It counts as physicochemical.
Conditions: not given
The procedure, abridged:
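Following EEC Directive 79/831 Annex V.A8, logP is obtained from retention on a 1.8 micron C18 column (50×4.6 mm) at 55 °C and 2.0 ml/min. Elution ran 10→95% acetonitrile (0.1% formic acid) against water (0.09% formic acid) in 4.25 min, held 1.25 min; mass detection used.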
For `C=CCNC(=O)c1cc(NC(=O)c2c(C(F)(F)F)c(C(F)(F)C(F)(F)F)nn2C)ncc1Br` [Ik-315], the logP was 3.42^a).
The same measure, in the same setting: with `Cn1nc(C(F)(F)C(F)(F)F)c(C(F)(F)F)c1C(=O)Nc1ccc(Cl)c(C(=O)NCc2ccccc2)c1` [Ik-84] the figure was 3.90^a); with `CN(C(=O)c1c(C(F)(F)F)c(C(F)(F)C(F)(F)F)nn1C)c1ccc(Cl)c(C(=O)NC2CC2)c1` [Ik-132], 3.30^a); with `O=C(NCc1ccccc1)c1cc(NC(=O)c2cnc(C(F)(F)C(F)(F)F)nc2C(F)(F)C(F)(F)F)ccc1Cl` [Ib-35], 4.20^a).
Still for that read-out and setting: the figure for `O=C(NC1CC1)c1cc(NC(=O)c2cnc(OCC(F)(F)C(F)(F)F)cc2C(F)(F)F)ccc1Cl` [Ij-3] is 3.44^a); for `O=C(NC1CC1)c1cc(NC(=O)c2nccc(C(F)(F)F)c2Cl)ccc1Cl` [Ie-1] it is 2.48^a); for `Cn1nc(C(F)(F)C(F)(F)F)c(Br)c1C(=O)Nc1ccc(Cl)c(C(=O)NC2CC2)c1` [Ik-26] it is 3.22^a).
The same measure, in the same setting: the figure for `CC(C)NC(=O)c1cc(NC(=O)c2c(C(F)(F)F)c(C(F)(F)C(F)(F)F)nn2C)ccc1Cl` [Ik-90] is 3.60^a).
As for `CC(C)CNC(=O)c1cc(NC(=O)c2c(C(F)(F)F)c(C(F)(F)C(F)(F)F)nn2C)ccc1Cl` [Ik-92], the logP was 3.90^a).
As to `Cn1nc(C(F)(F)C(F)(F)C(F)(F)C(F)(F)F)c(I)c1C(=O)Nc1ccc(Cl)c(C(=O)NC2CC2)c1` [Ik-265], the logP is 3.90^a).
For `C=CCNC(=O)c1cc(NC(=O)c2ccc(C(F)(F)F)nc2C)c(C)cc1Cl` [Ir-8], the logP is recorded as 2.45^a).
Same read-out and setting: the figure for `Cn1nc(OCC(F)(F)F)c(Br)c1C(=O)Nc1ccc(Cl)c(C(=O)NC2CC2)c1` [Ik-256] is 2.87^a); for `Cn1nc(C(F)(F)C(F)(F)F)c(C(F)(F)F)c1C(=O)Nc1cc(C#N)c(Cl)c(C(=O)NC2CC2)c1` [Ik-187] it is 3.40^a).
The same measure, in the same setting: the figure for `Cn1nc(C(F)(F)C(F)(F)F)c(C(F)(F)F)c1C(=O)Nc1ccc(Cl)c(C(N)=O)c1` [Ik-163] is 2.83^a); for `Cn1nc(C(F)(F)F)c(Cl)c1C(=O)Nc1ccc(Cl)c(C(=O)NCC(F)(F)F)c1` [Ik-154] it is 3.20^a); for `O=C(NCc1ccccc1)c1cc(NC(=O)c2ncc(C(F)(F)F)cc2Cl)ccc1Cl` [Ii-5] it is 3.17^a).
Turning to `CC(NC(=O)c1cc(NC(=O)c2cnc(C(F)(F)C(F)(F)F)nc2C(F)(F)F)ccc1Cl)C1CC1` (centres unmarked) [Ib-37], the logP is given as 3.76^a).
On the same count and under the same terms, the figure for `Cn1nc(C(F)(F)C(F)(F)F)c(C(F)(F)F)c1C(=O)Nc1cc(Br)c(Cl)c(C(=O)NCC(F)(F)F)c1` [Ik-178] is 4.14^a); for `CN(C(=O)c1cnc(C(F)(F)C(F)(F)F)nc1C(F)(F)F)c1ccc(Cl)c(C(=O)NC2CC2)c1` [Ib-38] it is 3.23^a); for `Cn1nc(C(F)(F)C(F)(F)C(F)(F)C(F)(F)F)c(I)c1C(=O)Nc1ccc(Cl)c(C(=O)NC2CCC2)c1` [Ik-268] it is 4.16^a).
The same measure, in the same setting: with `Cn1nc(C(F)(F)C(F)(F)F)c(C(F)(F)F)c1C(=O)Nc1cc(Br)c(I)c(C(=O)NC2CC2)c1` [Ik-210] the figure was 3.92^a); with `Cn1nc(C(F)(F)C(F)(F)F)c(C(F)(F)F)c1C(=O)Nc1cc(F)c(I)c(C(=O)NCC(F)(F)F)c1` [Ik-226], 3.95^a); with `Cn1nc(C(F)(F)C(F)(F)F)c(C(F)(F)F)c1C(=O)Nc1cc(Cl)c(Br)c(C(=O)NCC(F)(F)F)c1` [Ik-215], 4.14^a).
The molecule `Cc1nc(C(F)(F)F)ncc1C(=O)Nc1ccc(Cl)c(C(=O)NC2CC2)c1` [Ib-19] displayed a logP of 2.24v.
Same read-out and setting: with `Cc1nc(C(F)(F)C(F)(F)F)ncc1C(=O)Nc1ccc(Cl)c(C(=O)NCc2ccccc2)c1` [Ib-26] the figure was 3.43^a); with `Cn1nc(C(F)(F)C(F)(F)F)c(C(F)(F)F)c1C(=O)Nc1cc(C(=O)NC2CC2)c(F)cc1Cl` [Ik-148], 3.53^a).
For the molecule `CSc1c(Cl)cc(NC(=O)c2c(C(F)(F)F)c(C(F)(F)C(F)(F)F)nn2C)cc1C(=O)NCC(F)(F)F` [Ik-203], the logP is listed as 4.15^a).
On the same count and under the same terms, the figure for `Cc1nc(C(F)(F)F)ncc1C(=O)Nc1ccc(Cl)c(C(=O)NCC(F)(F)F)c1` [Ib-20] is 2.65^a); for `Cn1nc(OC(F)F)cc1C(=O)Nc1ccc(Cl)c(C(=O)NC2CC2)c1` [Ik-234] it is 2.17^a); for `Cn1nc(C(F)(F)C(F)(F)F)c(C(F)(F)F)c1C(=O)Nc1ccc(F)c(C(=O)NC2CC2)c1` [Ik-155] it is 3.31^a).
The same measure, in the same setting: the figure for `Cn1nc(C(F)(F)C(F)(F)C(F)(F)F)c(Br)c1C(=O)Nc1ccc(Cl)c(C(=O)NC2CC2)c1` [Ik-73] is 3.58^a).
The same measure, in the same setting: with `O=C(NC1CC1)c1cc(NC(=O)c2[nH]nc(C(F)(F)C(F)(F)F)c2C(F)(F)F)ccc1Cl` [Ik-179] the figure was 2.95^a); with `Cn1nc(C2CC2)c(C(F)(F)F)c1C(=O)Nc1ccc(Cl)c(C(=O)NC2CC2)c1` [Ik-261], 2.78^a); with `Cn1nc(C(F)(F)C(F)(F)F)c(C(F)(F)F)c1C(=O)Nc1cc(F)c(Br)c(C(=O)NCc2ccccc2)c1` [Ik-229], 4.14^a).
`Cc1nc(C(F)(F)F)ccc1C(=O)Nc1ccc(Cl)c(C(=O)NC(C)C)c1` [Ir-4]: the logP was 2.53^a).
In the case of `Cn1nc(C(F)(F)C(F)(F)F)c(C(F)(F)F)c1C(=O)Nc1cccc(C(=O)NC2CC2)c1` [Ik-13], the logP is listed as 3.15^a).
On the same count and under the same terms, with `O=C(NCC(F)(F)F)c1cc(NC(=O)c2ncc(C(F)(F)F)cc2Cl)ccc1Cl` [Ii-3] the figure was 2.86^a); with `CSc1c(F)cc(NC(=O)c2c(C(F)(F)F)c(C(F)(F)C(F)(F)F)nn2C)cc1C(=O)NC1CC1` [Ik-191], 3.57^a).
Same read-out and setting: the figure for `Cn1nc(C(F)(F)C(F)(F)F)c(C(F)(F)F)c1C(=O)Nc1ccc(Br)c(C(=O)NC2CC2)c1` [Ik-175] is 3.39^a); for `Cn1nc(C(F)(F)C(F)(F)F)c(C(F)(F)F)c1C(=O)Nc1cc(C(=O)NCC(F)(F)F)c(Cl)cc1Cl` [Ik-171] it is 3.97^a).
Same read-out and setting: with `Cn1nc(C(F)(F)C(F)(F)F)c(C(F)(F)F)c1C(=O)Nc1ccc(Cl)c(C(=O)NCC(F)(F)F)c1` [Ik-87] the figure was 3.67^a).
As to `CSc1c(Cl)cc(NC(=O)c2c(C(F)(F)F)c(C(F)(F)C(F)(F)F)nn2C)cc1C(=O)NC1CC1` [Ik-201], the logP is listed as 3.80^a).
`CCN(C(=O)c1c(C(F)(F)F)c(C(F)(F)C(F)(F)F)nn1C)c1ccc(Cl)c(C(=O)NCC(F)(F)F)c1` [Ik-138]: the logP is given as 3.81^a).
Regarding `Cn1nc(C(F)(F)C(F)(F)F)c(C(F)(F)F)c1C(=O)Nc1ccc(I)c(C(=O)NC2CC2)c1` [Ik-183], the logP was 3.45^a).
Regarding `Cn1nc(OCC(F)(F)F)c(Cl)c1C(=O)Nc1ccc(Cl)c(C(=O)NCC(F)(F)F)c1` [Ik-243], the logP is recorded as 3.27^a).
On the same count and under the same terms, with `Cn1nc(C(F)F)c(C(F)(F)F)c1C(=O)Nc1ccc(Cl)c(C(=O)NCC=CCl)c1` [Ik-232] the figure was 2.92^a); with `Cn1nc(-c2ccc(F)cc2)c(Br)c1C(=O)Nc1ccc(Cl)c(C(=O)NC2CC2)c1` [Ik-248], 3.04^a).
For `CC(C)NC(=O)c1cccc(NC(=O)c2c(C(F)(F)F)c(C(F)(F)C(F)(F)F)nn2C)c1Cl` [Ik-77], the logP was 3.47^a).

Staying with this series, now noted: HPLC phase inversion (reversed-phase) C18 column, HPLC method a), eluent acetonitrile/water with formic acid; read-out: logP.
As to `Cc1nc(C(F)(F)C(F)(F)F)nc(C)c1C(=O)O` [4,6-Dimethyl-2-(pentafluoroethyl)pyrimidine-5-carboxylic acid], the chromatographic logP was 1.63.
The same measure, in the same setting: the figure for `Cc1nc(C(F)(F)C(F)(F)F)ncc1C(=O)O` [4-Methyl-2-(pentafluoroethyl)pyrimidine-5-carboxylic acid] is 1.97.
On the same count and under the same terms, the figure for `Cn1cc(Br)c(C(F)(Cl)C(F)(F)F)n1` (centres unmarked) [4-Bromo-1-methyl-3-(1-chloro-1,2,2,2-tetrafluoroethyl)-1H-pyrazole] is 3.17; for `O=C(NC1CC1)c1cc(NC(=O)c2cnc(Cl)cc2C(F)(F)F)ccc1Cl` [2-chloro-N-[4-chloro-3-(cyclopropylcarbamoyl)phenyl]-4-(trifluoromethyl)pyridine-5-carboxamide] it is 2.35; for `Cn1ccc(C(F)(Cl)C(F)(F)F)n1` (centres unmarked) [1-Methyl-3-(1-chloro-1,2,2,2-tetrafluoroethyl)-1H-pyrazole] it is 2.46.
On to `Cc1nc(C(=O)Nc2ccc(Cl)c(C(=O)NC3CC3)c2)c(C(F)(F)F)c(C(F)(F)C(F)(F)F)n1` [Ia-1, N-[4-Chloro-3-(cyclopropylcarbamoyl)phenyl]-2-methyl-6-(pentafluoroethyl)-5-(trifluoromethyl)pyrimidine-4-carboxamide], for which the chromatographic logP worked out at 3.33.
Turning to `O=C(O)c1[nH]nc(C(F)(F)C(F)(F)F)c1C(F)(F)F` [3-(Pentafluoroethyl)-4-(trifluoromethyl)-1H-pyrazole-5-carboxylic acid], the chromatographic logP amounted to 2.
On the same count and under the same terms, the figure for `O=C(O)c1cnc(C(F)(F)C(F)(F)F)nc1C(F)F` [4-(Difluoromethyl)-2-(pentafluoroethyl)pyrimidine-5-carboxylic acid] is 1.8; for `COC(=O)c1cc(N(C(=O)c2c(C(F)(F)F)c(C(F)(F)C(F)(F)F)nn2C)C(=O)c2c(C(F)(F)F)c(C(F)(F)C(F)(F)F)nn2C)ccc1Cl` [Methyl 5-(bis{[1-methyl-3-(pentafluoroethyl)-4-(trifluoromethyl)-1H-pyrazol-5-yl]carbonyl}amino)-2-chlorobenzoate] it is 5.85; for `Cc1nc(C(F)(F)F)ncc1C(=O)O` [4-Methyl-2-(trifluoromethyl)pyrimidine-5-carboxylic acid] it is 1.26.
On the same count and under the same terms, with `COC(=O)c1cc(NC(=O)c2c(C(F)(F)F)c(C(F)(F)C(F)(F)F)nn2C)ccc1Cl` [Methyl 2-chloro-5-({[1-methyl-3-(pentafluoroethyl)-4-(trifluoromethyl)-1H-pyrazol-5-yl]carbonyl}amino)benzoate] the figure was 4.05.
